The results in this text go back to patent US20200017449A1, “HYDANTOINS THAT MODULATE BACE-MEDIATED APP PROCESSING” (Buck Institute for Research on Aging, priority 2013, published 2020).

SMILES strings stand for the structures. Like-named read-outs stand apart in the source and are kept apart here.

In assay [1] the target is T1, BACE1 (Homo sapiens, UniProt P56817).
T1 construct: purchased R&D 931-AS-050
The assay can be described thus: BACE1 P5-P5′ fluorescence substrate assay (APP-BACE1 IC50). The settings on record: Table 1; read-out: BACE IC50. The format is biochemical. As to the method: In one illustrative embodiment, an MBP-C125 APP695 wt fusion protein can be used as one of the substrates and the second substrate can be the commercially available P5-P5′ fluorescence substrate.
Briefly, 0.01 units of BACE1 were incubated for 1 h at room temperature with a BACE inhibitor, then the substrate was added to each well and the fluorescence was read immediately and every 30 min for 2 h. Activity was determine by dividing the fluorescence at a specific [BACE inhibitor] by the fluorescence at [BACE inhibitor]=0 μM, the % activity was plotted vs log[BACE inhibitor] to determine the APP-BACE1 using GraphPad Prism 5 (FIG. 6A)

Assay [2] concerns Aβ1-42 in SH-SY5Y neuroblastoma cells. Put plainly: Aβ1-42 in SH-SY5Y cells (ELISA). The format is cell-based, human. The following applies: FIG. 5. The procedure: SH-SY5Y neuroblastoma cells were seeded at 50,000 cells/well in a 96 wells plate for 24 h. Then their medium was changed for fresh medium supplemented with desired concentration of the hydantoin compound (e.g. compound 3). After 24 h, 20 μl of the medium was added to 2 μl of the complete protease inhibitor with 1 μM EDTA and kept at 4° C. until analysis using the ELISA assay below.
ELISA kits from Invitrogen were also used to quantify Aβ1-42 (KHB3544) in duplicate. For the Aβ1-42 ultrasensitive ELISA, samples were diluted 1:2 (50 μl CSF plus 50 μl kit-provided standard diluent buffer). Assays were performed according to manufacturer's instructions. In short, standards and samples were added to a plate pre-coated with a monoclonal capture antibody specific for the amino terminus of Hu Aβ. The samples were co-incubated with a rabbit detection antibody (Ab) specific for the carboxy terminus of the Aβ species being assayed for 3 hr at room temperature overnight at 4°(Aβ1-42) with gentle rocking. After washing, bound rabbit Ab was detected using a horseradish peroxidase-labeled anti-rabbit secondary Ab. After washing again, bound HRP-anti rabbit Ab was detected colorimetrically (Spectramax 190, Molecular Devices) by the addition of a substrate solution. […]
For orientation: In an ELISA, binding on a coated surface is turned into a signal by an enzyme label.

Assay [3] deals with Aβ42. Put plainly: Aβ lowering in brain uptake animals. The settings on record: NTg mice. The assay is classed as in vivo. The procedure:
Compound 2 and other hydantoins were produced (see, e.g., compounds 1-5 pharmacokinetic evaluation of these hydantoins was determined in brain uptake assays using NTg mice (see, e.g., Table 1). It was also determined that Compound 1 lowered Aβ42 in the same animals at 5 mpk, while compound 3 lowered Aβ at 1 mpk.

The target of assay [4] is T2, TRX-eAPP575-624 (Homo sapiens, UniProt P05067).
T2 construct: residues 575-624 of the APP ectodomain; made in house
Put plainly: SPR (Biacore) binding to ectodomain of APP. The procedure:
The binding affinity of the compounds for the ectodomain of APP was determined using SPR. […] The eAPP was crosslinked linked to the CM5 Biacore chips (GE Healthcare).
FC1 served as a reference cell following a mock immobilization with buffer alone. For all cells, the flow rate was 10 μl per min. The chip was blocked with 1M ethanolamine (pH 8.5). […] Binding traces were recorded for each dilution with a binding phase of 60 seconds and a dissociation phase of 240 seconds. Each cycle was performed at 20° C. with a constant flow rate of 20 μl/min. An additional 240 seconds of buffer flow at 60 μl per min across the cells was applied as a regeneration phase to facilitate complete dissociation of the compound from the protein. The sensograms were obtained by subtraction of the reference and buffer signals using the Biacore T100 Evaluation software. The binding curves were modeled with the PRISM (Graphpad Inc).
For orientation: In SPR one partner is held on a chip, and binding of the other changes the refractive index at the surface.

The mark [5] stands for this setting: Table 1, SPR, read-out: APP binding Kd.

T2 sequence (P05067 650-699): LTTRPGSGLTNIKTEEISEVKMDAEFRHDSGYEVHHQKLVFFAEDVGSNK
T1 sequence (P56817 46-501): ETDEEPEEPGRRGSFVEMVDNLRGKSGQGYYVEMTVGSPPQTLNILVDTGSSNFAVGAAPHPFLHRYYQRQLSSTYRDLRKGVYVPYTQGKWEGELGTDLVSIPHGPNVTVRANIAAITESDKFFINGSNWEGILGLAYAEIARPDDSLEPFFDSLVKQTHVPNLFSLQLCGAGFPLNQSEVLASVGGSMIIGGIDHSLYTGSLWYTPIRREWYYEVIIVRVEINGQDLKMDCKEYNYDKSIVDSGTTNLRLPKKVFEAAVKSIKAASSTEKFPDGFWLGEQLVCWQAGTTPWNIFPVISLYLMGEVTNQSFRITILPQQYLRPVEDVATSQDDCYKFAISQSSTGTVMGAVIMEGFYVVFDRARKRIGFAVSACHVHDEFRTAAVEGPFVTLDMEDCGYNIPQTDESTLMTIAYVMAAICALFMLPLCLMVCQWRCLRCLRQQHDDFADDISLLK

For orientation: IC50 means the concentration needed to halve the response being measured. With `Cc1cc(C2(c3cc(F)cc(F)c3)N=C(N)N(C)C2=O)ccc1OC(F)F` (stereo not drawn) [FAH-3, 2-amino-4-(4-(difluoromethoxy)-3-methylphenyl)-4-(3,5-difluorophenyl)-1-methyl-1H-imidazol-5(4H)-one], the IC50 in assay [1] was 520 nM. The “inhibition of Aβ production” value in assay [2] was “inhibition of Aβ production”. The “lowering of Aβ in vivo” value in assay [3] (1 mpk) was “lowered Aβ”. Further, the “binding to eAPP (qualitative)” value in assay [4] (SPR / BiaCore, FIG. 4) is “binding to eAPP575-624”.
On to `CN1C(=O)C(c2ccccc2)(c2cc(F)cc(F)c2)N=C1N` (stereo not drawn) [FAH-1], for which the half-maximal inhibitory concentration (IC50) in assay [1] stood at 3000 nM. The “lowering of Aβ42 in vivo” value in assay [3] (5 mpk) was “lowered Aβ42”.
For `CN1C(=O)C(c2ccc(OC(F)F)cc2)(c2cc(F)cc(F)c2)N=C1N` (stereo not drawn) [FAH-2, 2-amino-4-(4-(difluoromethoxy)phenyl)-4-(3,5-difluorophenyl)-1-methyl-1H-imidazol-5(4H)-one], in assay [1], the IC50 is 2000 nM. In addition, the Kd in assay [4] (setting [5]) is 8000 nM.
For the compound `Cc1cc(C2(c3cccc(F)c3)N=C(N)N(C)C2=O)ccc1OC(F)F` (stereo not drawn) [FAH-17, 2-amino-4-(4-(difluoromethoxy)-3-methylphenyl)-4-(3-fluorophenyl)-1-methyl-1H-imidazol-5(4H)-one], the Kd in assay [4] (setting [5]) is < 1000 nM; in assay [4] (Table 5, Secondary Screen, read-out: APP Kd), < 1000 nM.
Regarding `Cc1cc(C)cc(C2(c3cc(F)cc(F)c3)N=C(N)N(C)C2=O)c1` (stereo not drawn) [FAH-5, 2-amino-4-(3,5-difluorophenyl)-4-(3,5-dimethylphenyl)-1-methyl-1H-imidazol-5(4H)-one], the IC50 in assay [1] came out at 5000 nM.
Still for that read-out and setting: next, `CN1C(=O)C(c2cc(F)cc(F)c2)(c2cccc(OC(F)F)c2)N=C1N` (stereo not drawn) [FAH-4, 2-amino-4-(3-(difluoromethoxy)phenyl)-4-(3,5-difluorophenyl)-1-methyl-1H-imidazol-5(4H)-one]: 2100 nM.
